The values that follow come from US20250009783A1, “SULFONATED HYALURONIC ACID COMPOUND, PREPARATION METHOD THEREFOR AND APPLICATION THEREOF” (UNIVERSITY OF MACAU, priority 2021, published 2025).

The experiment has as its system CAGA-TGF-β activity reporter cells. The experiment is described as follows: Test using TGF-β activity reporter cell (luciferase test). In kind it is cell-based. The conditions noted are these: added alone: TGF-β 50 ng/ml, pro-TGF-β1 200 ng/ml, overnight, FIG. 6. The procedure: Method: CAGA-TGF-β activity reporter cells were plated (12-well plate) until the confluence reached 65%. Samples and reagents were added to different wells, respectively. The grouping and concentration were as follows. Group 1:2 ml of TGF-β (50 ng/ml); Group 2:2 ml of pro-TGF-β1 (200 ng/ml); Group 3:2 ml of LLC (200 ng/ml)+S-HA-9 (20 ug/ml); Group 4:2 ml of LLC (200 ng/ml)+PBS (1×); Group 5:2 ml of LLC (200 ng/ml)+S-HA-PBA-1 (20 ug/ml), the cells were stimulated overnight, the samples were collected, and cell lysate was obtained for luciferase test.

Take “TGF-β: transforming growth factor-β, control group 1 of the reporter cell test (50 ng/ml)”: the “production of active TGF-β (reporter control groups)” value is “stimulated the production of active TGF-β”.
For “proTGF-β: pro-TGF-β1, control group 2 of the reporter cell test (200 ng/ml)” the value was “stimulated the production of a very small amount of active TGF-β”.
